# According to paper PMC9322761, “Design, Synthesis and Biological Characterization of Histone Deacetylase 8 (HDAC8) Proteolysis Targeting Chimeras (PROTACs) with Anti-Neuroblastoma Activity” (International Journal of Molecular Sciences, 2022):
# Molecular target: T1, HDAC8 (Homo sapiens, UniProt Q9BY41)
# T1 sequence (Q9BY41 1-377): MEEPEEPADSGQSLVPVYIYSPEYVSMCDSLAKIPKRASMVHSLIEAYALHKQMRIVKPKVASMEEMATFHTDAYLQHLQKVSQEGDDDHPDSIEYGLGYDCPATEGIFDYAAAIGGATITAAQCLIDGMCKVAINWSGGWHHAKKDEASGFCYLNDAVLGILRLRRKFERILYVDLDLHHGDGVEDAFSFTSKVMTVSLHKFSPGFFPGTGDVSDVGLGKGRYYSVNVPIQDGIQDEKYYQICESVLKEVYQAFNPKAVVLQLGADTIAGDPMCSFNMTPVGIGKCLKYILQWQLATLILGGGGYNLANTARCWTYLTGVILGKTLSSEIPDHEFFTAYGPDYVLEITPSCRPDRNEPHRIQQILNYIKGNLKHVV
# Assay: In vitro HDAC8 activity assay (Fluor de Lys-HDAC8)
# Assay type: biochemical
# Design: made in house
# Conditions: Table 1, PROTACs
# Protocol: Recombinant hHDAC8 was produced by Romier et al. in Strasbourg. The HDAC8 activity assays were performed according to the commercial HDAC8 Fluorometric Drug Discovery Kit (Fluor de Lys(R)-HDAC8, BML-KI178) corresponding to the instructions of the manufacturer. As substrate a tetrapeptide connected to aminomethylcoumarin (AMC) H2N-Arg- His-Lys(Ac)-Lys(Ac)-AMC was synthesized as previously described. The enzyme was incubated for 90 min at 37 °C, with a substrate concentration of 50 µM and increasing concentrations of inhibitors. The stop-solution-containing inhibitor was added to stop the hHDAC8 activity, and Trypsin was added to release the AMC. The solution was incubated for 20 min at 37 °C to develop the assay.
# (§1) Inhibition was measured at increasing concentration and IC50 was calculated by nonlinear regression with Origin 9.0G software.
row,SMILES,IC50 [nM]
1,COc1ccc(C(=O)NO)cc1NC(=O)c1ccc(CNC(=O)CCCCCCCNc2cccc3c2C(=O)N(C2CCC(=O)NC2=O)C3=O)cc1 (stereo not shown) [CRBN_1c],150 ± 10
2,O=C(COc1ccc(CNc2cc(C(=O)NO)ccc2Cl)cc1)NCCCCCNc1cccc2c1C(=O)N(C1CCC(=O)NC1=O)C2=O (stereo not shown) [CRBN_1g],590 ± 110
3,O=C(COc1ccc(CNc2cc(C(=O)NO)ccc2Cl)cc1)NCCCOCCOCCOCCCNc1cccc2c1C(=O)N(C1CCC(=O)NC1=O)C2=O (stereo not shown) [CRBN_1h],330 ± 190
4,O=C(COc1ccc(C(=O)Nc2cc(C(=O)NO)ccc2Cl)cc1)NCCCOCCOCCOCCCNc1cccc2c1C(=O)N(C1CCC(=O)NC1=O)C2=O (stereo not shown) [CRBN_1i],650 ± 140

# Same assay, conditions: selectivity index, HDAC6 over HDAC8
row,SMILES,SI (HDAC6/HDAC8)
1,COc1ccc(C(=O)NO)cc1NC(=O)c1ccc(CNC(=O)CCCCCCCNc2cccc3c2C(=O)N(C2CCC(=O)NC2=O)C3=O)cc1 (stereo not shown) [CRBN_1c],2

# Molecular target: HDAC1 (Homo sapiens, UniProt Q13547)
# Sequence (Q13547 whole entry): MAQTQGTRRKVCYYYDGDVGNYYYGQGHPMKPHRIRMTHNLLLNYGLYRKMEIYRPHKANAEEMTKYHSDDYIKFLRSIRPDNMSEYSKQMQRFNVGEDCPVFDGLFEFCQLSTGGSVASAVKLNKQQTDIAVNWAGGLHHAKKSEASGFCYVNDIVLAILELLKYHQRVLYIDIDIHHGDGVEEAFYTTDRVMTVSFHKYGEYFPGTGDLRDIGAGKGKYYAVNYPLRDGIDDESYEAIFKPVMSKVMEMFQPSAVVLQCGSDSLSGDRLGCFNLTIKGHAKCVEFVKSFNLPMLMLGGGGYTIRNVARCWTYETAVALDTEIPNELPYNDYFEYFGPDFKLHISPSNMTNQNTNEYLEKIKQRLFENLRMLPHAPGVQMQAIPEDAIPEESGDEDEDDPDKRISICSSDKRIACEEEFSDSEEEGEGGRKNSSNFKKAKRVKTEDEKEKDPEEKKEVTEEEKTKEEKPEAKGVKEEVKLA
# Assay: In vitro HDAC inhibitory activity assay, recombinant HDAC1 (fluorogenic substrate ZMAL)
# Assay type: biochemical
# Design: purchased BPS Biosciences
# Conditions: not given
# Protocol: (§2) The in vitro testing on recombinant HDACs was performed as previously described. Recombinant human HDAC1 and −6 were purchased from BPS Biosciences. The enzyme inhibition was determined by using a reported homogenous fluorescence assay. […] Fluorescence intensity was measured at an excitation wavelength of 390 nm and an emission wavelength of 460 nm in a microtiter plate reader (BMG Polarstar).
# as §1
row,SMILES,IC50 [nM]
1,O=C(COc1ccc(CNc2cc(C(=O)NO)ccc2Cl)cc1)NCCCOCCOCCOCCCNc1cccc2c1C(=O)N(C1CCC(=O)NC1=O)C2=O (stereo not shown) [CRBN_1h],3910 ± 480

# Same assay, conditions: 1 µM; read-out: HDAC1 % inhib. at given conc.
row,inhibition at 1 µM [%],SMILES
1,10.1,O=C(COc1ccc(CNc2cc(C(=O)NO)ccc2Cl)cc1)NCCCCCNc1cccc2c1C(=O)N(C1CCC(=O)NC1=O)C2=O (stereo not shown) [CRBN_1g]
2,20.7,O=C(COc1ccc(C(=O)Nc2cc(C(=O)NO)ccc2Cl)cc1)NCCCOCCOCCOCCCNc1cccc2c1C(=O)N(C1CCC(=O)NC1=O)C2=O (stereo not shown) [CRBN_1i]

row,SMILES,inhibition at 1 µM [%]
1,COc1ccc(C(=O)NO)cc1NC(=O)c1ccc(CNC(=O)CCCCCCCNc2cccc3c2C(=O)N(C2CCC(=O)NC2=O)C3=O)cc1 (stereo not shown) [CRBN_1c],22.2

# Same assay, conditions: 10 µM; read-out: HDAC1 % inhib. at given conc.
row,inhibition at 10 µM [%],SMILES
1,69,O=C(COc1ccc(CNc2cc(C(=O)NO)ccc2Cl)cc1)NCCCCCNc1cccc2c1C(=O)N(C1CCC(=O)NC1=O)C2=O (stereo not shown) [CRBN_1g]
2,67.4,O=C(COc1ccc(C(=O)Nc2cc(C(=O)NO)ccc2Cl)cc1)NCCCOCCOCCOCCCNc1cccc2c1C(=O)N(C1CCC(=O)NC1=O)C2=O (stereo not shown) [CRBN_1i]

row,SMILES,inhibition at 10 µM [%]
1,COc1ccc(C(=O)NO)cc1NC(=O)c1ccc(CNC(=O)CCCCCCCNc2cccc3c2C(=O)N(C2CCC(=O)NC2=O)C3=O)cc1 (stereo not shown) [CRBN_1c],40.1

# Molecular target: T2, HDAC6 (Homo sapiens, UniProt Q9UBN7)
# T2 sequence (Q9UBN7 1-1215): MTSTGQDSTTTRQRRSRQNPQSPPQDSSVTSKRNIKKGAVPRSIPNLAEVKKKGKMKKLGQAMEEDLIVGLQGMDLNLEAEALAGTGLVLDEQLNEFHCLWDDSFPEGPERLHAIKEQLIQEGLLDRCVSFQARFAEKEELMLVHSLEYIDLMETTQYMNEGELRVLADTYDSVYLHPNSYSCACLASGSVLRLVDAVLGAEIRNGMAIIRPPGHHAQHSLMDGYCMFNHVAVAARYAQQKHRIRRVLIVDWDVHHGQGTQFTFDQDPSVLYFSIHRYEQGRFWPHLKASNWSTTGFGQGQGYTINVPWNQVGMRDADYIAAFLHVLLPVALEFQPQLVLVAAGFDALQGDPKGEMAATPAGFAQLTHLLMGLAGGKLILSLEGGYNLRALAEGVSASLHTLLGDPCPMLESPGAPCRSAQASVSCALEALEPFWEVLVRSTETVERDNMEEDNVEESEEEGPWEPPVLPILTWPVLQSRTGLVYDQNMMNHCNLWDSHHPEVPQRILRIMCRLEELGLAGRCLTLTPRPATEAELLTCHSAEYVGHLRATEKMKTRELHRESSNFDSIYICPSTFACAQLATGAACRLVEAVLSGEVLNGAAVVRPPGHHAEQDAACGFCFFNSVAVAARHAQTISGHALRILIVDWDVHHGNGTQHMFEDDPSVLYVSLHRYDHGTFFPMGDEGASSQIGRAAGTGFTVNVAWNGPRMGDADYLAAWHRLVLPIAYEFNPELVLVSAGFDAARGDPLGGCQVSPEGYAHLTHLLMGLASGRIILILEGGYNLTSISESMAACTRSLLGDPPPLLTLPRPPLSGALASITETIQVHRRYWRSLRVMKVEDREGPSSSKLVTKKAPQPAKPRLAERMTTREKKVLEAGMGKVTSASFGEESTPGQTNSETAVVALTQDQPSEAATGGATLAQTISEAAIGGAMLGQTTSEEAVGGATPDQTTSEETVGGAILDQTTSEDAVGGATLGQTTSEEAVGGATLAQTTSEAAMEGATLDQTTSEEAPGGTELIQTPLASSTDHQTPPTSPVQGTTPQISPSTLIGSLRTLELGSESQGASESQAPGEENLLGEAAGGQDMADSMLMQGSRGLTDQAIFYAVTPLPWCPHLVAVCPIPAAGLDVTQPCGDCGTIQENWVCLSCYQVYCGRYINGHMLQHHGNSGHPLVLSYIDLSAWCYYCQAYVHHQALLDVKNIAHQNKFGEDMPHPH
# Assay: In vitro HDAC inhibitory activity assay, recombinant HDAC6 (fluorogenic substrate ZMAL)
# Assay type: biochemical
# Design: purchased BPS Biosciences
# Conditions: not given
# Protocol: as §2, §1
row,SMILES,IC50 [nM]
1,COc1ccc(C(=O)NO)cc1NC(=O)c1ccc(CNC(=O)CCCCCCCNc2cccc3c2C(=O)N(C2CCC(=O)NC2=O)C3=O)cc1 (stereo not shown) [CRBN_1c],250 ± 20

# Same assay, conditions: 1 µM; read-out: HDAC6 % inhib. at given conc.
row,inhibition at 1 µM [%],SMILES
1,24.8,O=C(COc1ccc(CNc2cc(C(=O)NO)ccc2Cl)cc1)NCCCCCNc1cccc2c1C(=O)N(C1CCC(=O)NC1=O)C2=O (stereo not shown) [CRBN_1g]
2,85.4,O=C(COc1ccc(C(=O)Nc2cc(C(=O)NO)ccc2Cl)cc1)NCCCOCCOCCOCCCNc1cccc2c1C(=O)N(C1CCC(=O)NC1=O)C2=O (stereo not shown) [CRBN_1i]

row,SMILES,inhibition at 1 µM [%]
1,O=C(COc1ccc(CNc2cc(C(=O)NO)ccc2Cl)cc1)NCCCOCCOCCOCCCNc1cccc2c1C(=O)N(C1CCC(=O)NC1=O)C2=O (stereo not shown) [CRBN_1h],33.5

# Same assay, conditions: 10 µM; read-out: HDAC6 % inhib. at given conc.
row,inhibition at 10 µM [%],SMILES
1,72.6,O=C(COc1ccc(CNc2cc(C(=O)NO)ccc2Cl)cc1)NCCCCCNc1cccc2c1C(=O)N(C1CCC(=O)NC1=O)C2=O (stereo not shown) [CRBN_1g]
2,92.3,O=C(COc1ccc(C(=O)Nc2cc(C(=O)NO)ccc2Cl)cc1)NCCCOCCOCCOCCCNc1cccc2c1C(=O)N(C1CCC(=O)NC1=O)C2=O (stereo not shown) [CRBN_1i]

row,SMILES,inhibition at 10 µM [%]
1,O=C(COc1ccc(CNc2cc(C(=O)NO)ccc2Cl)cc1)NCCCOCCOCCOCCCNc1cccc2c1C(=O)N(C1CCC(=O)NC1=O)C2=O (stereo not shown) [CRBN_1h],66.8
